# Assay results from patent US20100249419A1, “UTILIZATION OF NOVEL COMPOUNDS WITH AMYLOID AFFINITY AND METHOD OF PRODUCING THE SAME” (NIHON MEDI-PHYSICS CO., LTD., priority 2007, published 2010).
# Assays:
# [1] = target: T1, aggregated Aβ (Aβ1-42) injected into amygdaloid nucleus (Homo sapiens, UniProt P05067); test: Confirmation of imaging of amyloid in brain (ex vivo autoradiogram, Aβ1-42); set-up: species or system male Wistar rat; conditions: brain slice 60 minutes after tail vein injection
# T1 construct: Aβ1-42 (manufactured by Wako) was dissolved in phosphate buffer (pH 7.4); purchased Wako
# T1 sequence (P05067 672-713): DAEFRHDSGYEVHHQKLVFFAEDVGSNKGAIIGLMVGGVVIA
# Procedure: The following experiment was carried out in order to examine whether amyloid in brain can be imaged by the compound of the present invention.
# (1) Aβ1-42 (manufactured by Wako) was dissolved in phosphate buffer (pH 7.4) and shaken at 37° C. for 72 hours, to obtain a 1 mg/mL suspension of aggregated Aβ (hereinafter referred to as amyloid suspension in the Examples).
# (2) 2.5 μL (corresponding to […]) of the amyloid suspension was injected into an amygdaloid nucleus on one side of a male Wistar rat (7-week old). As a control, 2.5 μL of a phosphate buffered physiological saline solution (pH 7.4) was injected into an amygdaloid nucleus on the other side of the rat. The rats were examined 1 day after the injection of the amyloid suspension and the phosphate buffered physiological saline solution (pH 7.4).
# (3) Compound 1 was dissolved in a 10 mg/mL ascorbic acid-containing physiological saline solution to obtain a sample solution (22 MBq/mL in radioactivity concentration in the sample solution). This solution was injected under thiopental anesthesia into the rat through the tail vein (dosage: 0.5 mL, dosed radioactivity: 11-13 MBq equivalent).
# (4) Brain was removed 60 minutes after the injection to prepare a brain slice of 10 μm in thickness with a microtome (type: CM3050S, manufactured by LEICA). The brain slice was exposed to an imaging plate for 20 hours, and then image analysis was carried out by use of a Bio-imaging Analyzer (type: BAS-2500; manufactured by FUJIFILM Corporation).
# (5) After the completion of the image analysis using the Bio-imaging Analyzer, […]
# Thus, it was confirmed that amyloid was deposited on the slice (FIG. 6b).
# The same procedures as in Example 12 were performed except using a solution of Compound 2 in a 10 mg/mL ascorbic acid as a sample solution (the radioactive concentration of the sample solution was 25 MBq/mL).
# (1) Aβ1-42 (manufactured by Wako) was dissolved in phosphate buffer (pH 7.4) and shaken at 37° C. for 72 hours, to obtain 1 mg/mL of a suspension of aggregated Aβ (hereinafter referred to as amyloid suspension in the Examples).
# (3) A sample solution (30 MBq/mL in radioactivity concentration, Example 24) in which Compound 4 was dissolved in a 10 mg/mL ascorbic acid-containing physiological saline solution and a sample solution (30 MBq/mL in radioactivity concentration, Example 25) in which Compound 6 was dissolved in a 10 mg/mL ascorbic acid-containing physiological saline solution were prepared. This solution was injected under thiopental anesthesia into the rat through the tail vein (dosage: 0.5 mL, dosed radioactivity: 11-15 MBq equivalent).
# Thus, it was confirmed that amyloid was deposited on the slice (FIG. 12 and FIG. 13).
# [2] = Partition coefficient based on the octanol extraction method; type: physicochemical; conditions: octanol / 10 mmol/L phosphate buffer (pH 7.4)
# Procedure: Partition coefficients based on the octanol extraction method (hereinafter referred to as log Poctanol) were measured, which are generally known as an indicator of permeability of compounds through the blood-brain barrier (hereinafter referred to as BBB).
# A diethyl ether solution of Compound 1 prepared in Example 3 (Example 8), a diethyl ether solution of Compound 2 prepared in Example 6 (Example 9), and a diethyl ether solution of [^123I]-IMPY prepared in Reference Example 1 (Comparative Example 4) were each diluted with 10 mg/mL ascorbic acid-containing physiological saline solution, and adjusted to a radioactive concentration of 20-30 MBq/mL. To 2 mL of octanol, 10 μL each of the prepared sample solutions was added, 2 mL of 10 mmol/L phosphate buffer (pH 7.4) was added, followed by stirring for 30 seconds. After the mixture was centrifuged with a low-speed centrifuge (2000 rpm×60 min.), the octanol layer and the water layer were sampled each in an amount of 1 mL, and subjected to measurement of radioactivity count with an autowell gamma system (Type: ARC-301B, manufactured by Aloka). Using the obtained radioactivity count, log Poctanol was calculated in accordance with the equation (2).
# A diethyl ether solution (Example 20) of Compound 4 prepared in Example 16, a diethyl ether solution (Example 21) of Compound 6 prepared in Example 19, and a diethyl ether solution (Comparative Example 7) of [^123I]-IMPY were each diluted with a 10 mg/mL ascorbic acid-containing physiological saline solution to adjust to a radioactive concentration of 20-30 MBq/mL. To 2 mL of octanol, 10 μL each of the prepared sample solution was added, and 2 mL of 10 mmol/L phosphate buffer (pH 7.4) was further added, followed by stirring for 30 seconds. After the mixture was centrifuged with a low-speed centrifuge (2000 rpm×60 min.), the octanol layer and the water layer were sampled each in an amount of 1 mL, and subjected to measurement of radioactivity count with an autowell gamma system (Type: ARC-301B, manufactured by Aloka). Using the obtained radioactivity count, logPoctanol was calculated in accordance with the equation (4).
Substance,Accumulation of radioactivity in amygdaloid nucleus on the amyloid-injected side [1],"logPoctanol value ([2]; Table 4, Examples 8-9)","logPoctanol value ([2]; Table 6, Examples 20-21)"
"2-[4′-(2″-hydroxyethoxy)phenyl]-6-[^123I]iodoimidazo[1,2-a]pyridine [Compound 1]",marked accumulation of radioactivity,1.8,
"2-(4′-ethoxyphenyl)-6-[^123I]iodoimidazo[1,2-a]pyridine [Compound 2]",marked accumulation of radioactivity,2.1,
"2-[4′-(3″-hydroxypropoxy)phenyl]-6-[^123I]iodoimidazo[1,2-a]pyridine [Compound 6]",marked accumulation of radioactivity,,2.1
